Data: the supplement of paper PMC5770543
± gives the standard deviation.

Assays:
[1] = test system: Plasmodium falciparum 3D7; experiment: % inhibition of schizont-to-ring transition vs DMSO; higher = more inhibition
How it was run: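 Schizont-to-ring transition inhibition is the formation of new rings relative to vehicle controls. Tightly synchronised P. falciparum schizonts at about 40–42 hours post-invasion (1% parasitemia, 2.5% hematocrit, AlbuMAX-supplemented RPMI) were treated with compound at 1, 3 or 10 µM, alongside vehicle and positive controls. After glutaraldehyde fixation, Triton permeabilisation and Hoechst 33342 staining, at least 100,000 events were counted by flow cytometry, and values are the mean of three experiments.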

[2] = biological target: Toxoplasma gondii RH tachyzoites; experiment: EC50 growth inhibition (48 h luciferase)
[3] = test system: Plasmodium falciparum 3D7; experiment: EC50 growth inhibition (60 h, SYBR Green); conditions: stage: ring-stage start
[4] = test system: Toxoplasma gondii RH tachyzoites; experiment: % growth inhibition vs DMSO (48 h luciferase); higher = more inhibition; conditions: 10 µM
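Wherever % growth inhibition vs DMSO (48 h luciferase) is given: tested in triplicate wells of 96-well plates on confluent HFF monolayers, with 1% DMSO wells as negative control in four replicates.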

SMILES	% inhibition of schizont-to-ring transition ([1]; 1 µM) [%]	% inhibition of schizont-to-ring transition ([1]; 3 µM) [%]	% inhibition of schizont-to-ring transition ([1]; 10 µM) [%]	EC50 growth inhibition [2] [µM]	EC50 growth inhibition [3] [µM]	% growth inhibition [4] [%]
O=C1c2ccc3c4c(ccc(c24)C(=O)N1CCCCO)C(=O)N(CCCCO)C3=O	9.23	16.9	64.2	0.421	4.81	99.55 ± 0.29
CCOc1ccc(Nc2c3ccccc3nc3ccccc23)cc1	45.1	58.5	68.8	0.884	0.529	100.1 ± 0.26
Cc1cc(N2CCCC2)nc(Nc2ccc(NC(=O)CCc3ccccc3)cc2)n1	55.6	62.1	67.5	0.102	0.139	96.07 ± 0.93
CCN(CC)CCCNc1nc(-c2ccc(Cl)cc2)nc2ccccc12	44.9	45.1	58.3	0.122	3.52	80.8 ± 4.8
COc1cc2c(cc1OC)C1=NNC(=O)C1=NC(C)(C)C2	14.2	25.3	63.4	3.26	1.79	80.4 ± 1.2
CCOC(=O)c1cn(CC)c2cc(N(C)CCc3ccc(OC)c(OC)c3)c(F)cc2c1=O	36.8	60.5	66.7	0.91	0.21	97.69 ± 0.15
COc1cc(C(=O)ON=C(N)Cc2cccc3ccccc23)cc(OC)c1OC	7.84	57	73.7	0.836	0.218	99.01 ± 0.4
CCCCNc1nc(NC(C)(C)C)nc(NC(C)(C)C)n1	12.2	25.9	66.4	0.603	2.76	93.8 ± 2.5
CC(C)(C)C(=O)Nc1ccc(C(=O)Nc2cccc(-c3nc4ccccc4[nH]3)c2)cc1	22.8	32.4	56.2	2.08	1.82	88.4 ± 1.2
O=C(Nc1ccccc1O)c1ccc(Oc2cccc(C(=O)Nc3ccccc3O)c2)cc1	0.57	30	46.7	1.67	1.84	99.35 ± 0.37
CCCCCCn1c(=N)n(CC(O)COc2cccc(C)c2)c2ccccc21 (stereo unspecified)	7.26	18.9	72.6	2.09	1.13	99.65 ± 0.38
COc1ccc(-c2nonc2NC(=O)c2cccc(Cl)c2)cc1OC	36.5	56.1	71	0.0353	1.17	84.3 ± 0.96
CC(C)(C)CC(C)(C)NCC(O)COc1ccc(Cl)cc1Cl (stereo unspecified)	22.6	40.4	78.1	2.05	0.576	99.763 ± 0.02
O=C(Nc1ccc(CN2CCOCC2)cc1)c1ccc(-c2cc(Cl)ccc2Cl)o1	5.81	22.5	42.6	5.59	1.23	81.1 ± 4.3
COCCNC(=O)c1ccc(OC2CCN(Cc3ccc(F)c(F)c3)CC2)c(Cl)c1	10.5	23.7	52.4	0.27	1.25	97.36 ± 0.96
O=c1nc(C=Cc2ccc(Br)cc2)oc2ccccc12	15.3	24.2	54	0.116	1.77	99.06 ± 0.14
CCOc1ccc(-c2nonc2NC(=O)c2cccc(C)c2)cc1OCC	81.4	80	78.5	1.62	0.374	96.5 ± 1.9
O=C(Nc1ccc(Cl)cc1C(=O)Nc1ccncc1)c1ccc(Cl)cc1Cl	3.75	32.4	62.5	3.95	1.28	80.8 ± 4.7
Cc1sc(NC(=O)c2ccccc2)c(C(c2cccs2)N2CCN(c3ccccc3)CC2)c1C (stereo unspecified)	5.65	10.7	36.5	0.55	1.93	88.7 ± 5.2
CCCCC(O)(c1ccc(Cl)cc1)C(CN1CCOCC1)c1ccc(Cl)cc1 (stereo unspecified)	21	18.3	40.5	5	2.01	99.1 ± 0.71
CSC1=NC(=Nc2c(C)cccc2C)C2(CCC(C(C)(C)C)CC2)N1c1ccc(Cl)cc1 (stereo unspecified)	12.4	26.3	49.9	0.775	0.869	99.94 ± 0.22
Cc1cc(Nc2cccc(F)c2)nc(NCc2ccccc2)n1	43.1	60.2	70.5	0.879	0.149	97.33 ± 0.9
CCOc1ccc2nc(C)cc(Nc3ccc(Br)cc3)c2c1	28	45.8	44.9	4.41	0.18	99.53 ± 0.2
CCOC(=O)c1c(C)n(-c2ccccc2)c2ccc(OC(=O)c3cc(OC)c(OC)c(OC)c3)cc12	11.1	16.1	27.7	6.36	1.6	96.58 ± 0.65
COc1ccc(-c2nc(N3CCN(C(=O)C4CCCCC4)CC3)c3c4c(sc3n2)CCCC4)cc1	10.6	17.7	44.9	3.08	4.08	86 ± 3.8
Cc1ccc(C2CC(C(F)(F)F)n3nc(C(=O)N4CCN(C(c5ccccc5)c5ccccc5)CC4)cc3N2)cc1 (stereo unspecified)	< 0	< 0	35.3	1.66	2.04	99.677 ± 0.058

SMILES	% inhibition of schizont-to-ring transition ([1]; 1 µM) [%]	% inhibition of schizont-to-ring transition ([1]; 3 µM) [%]	% inhibition of schizont-to-ring transition ([1]; 10 µM) [%]	EC50 growth inhibition [2] [µM]	EC50 growth inhibition [3] [µM]	% growth inhibition [4] [%]
CCCCNCC(O)(c1ccc(Cl)cc1)c1ccc(Cl)cc1	8.52	48.1	70.3	6.55	0.527	97.55 ± 0.55
Cc1cc(N(C)C)nc(Nc2ccc(NC(=O)Nc3ccccc3)cc2)n1	41.8	56.5	71.1	1.99	0.236	95.4 ± 1.2
COc1ccc2nc(C)cc(Nc3ccc(Cl)cc3)c2c1	24.7	39.5	56.8	0.556	0.477	99.3 ± 1
O=C(NC(c1ccccc1)c1ccc2cccnc2c1O)c1ccccc1 (stereo unspecified)	13.5	35.6	53.7	0.77	3.66	99.71 ± 0.23
CCOC(=O)c1cnc2ccc(OC)cc2c1NCc1ccccc1	42	45.3	59.1	1.4	6.78	97.7 ± 1.4
O=C(Nc1cccc(C(F)(F)F)c1)c1cc(Cl)ccc1O	< 0	20.2	51.6	0.0092	3.77	99.77 ± 0.14
O=C(NCCCN1CCC(N2CCCCC2)CC1)C1=Cc2cc(Br)ccc2OC1	27	57.9	66.7	2.69	0.348	88.9 ± 1.1
OC1=C2C(=Nc3ccccc3SC2c2ccc(Br)cc2)c2ccccc21 (stereo unspecified)	19.5	33.4	45.5	0.803	0.588	99.19 ± 0.75
CSc1ccccc1C(=O)Nc1nc(-c2ccccn2)cs1	23	26.9	40.1	0.849	1.71	99.44 ± 0.19
O=C(Nc1ccc(F)c(Cl)c1)Nc1ccc(Cl)c(Cl)c1	36.5	55.4	77.4	0.346	3.98	100.1 ± 0.21
COc1ccccc1N1C(=N)SC(=Cc2ccc(OCc3ccccc3F)cc2)C1=O	14.8	30.1	52.5	0.978	4.92	93.42 ± 0.8
CCc1ccc(Nc2cc(C)c3ccc(O)cc3n2)cc1	58.8	82.3	80.4	3.05	0.286	97.8 ± 1.4
COc1ccc(Nc2nc(NCc3ccccc3)c3ccccc3n2)cc1	26.4	34.8	48	0.763	0.104	100.5 ± 0.45
CCN(CC)c1ccc(NC(=O)c2cccs2)cc1	< 0	3.66	31.7	1.65	2.11	91.4 ± 2.7
CN(C)CCCNCc1ccc(-c2ccc(F)c(Cl)c2)o1	12.5	38.8	63.5	1.66	0.601	92.8 ± 3.3
O=C(Cc1ccccc1)NC(c1ccc(Cl)cc1)c1c(O)ccc2ccccc12 (stereo unspecified)	0.685	26.1	67.8	1.02	1.88	100.2 ± 0.43
CN(C)CCCNc1c2ccccc2nc2ccccc12	28.1	37.7	40.7	1.48	0.0928	100.3 ± 0.38
CCN(CC)c1cc(C)c2cc(NC(=O)c3cccc(OC)c3)ccc2n1	25.4	31.7	56.8	1.81	1.3	98.73 ± 0.42
CC(Oc1ccc(NC(=O)c2cccs2)cc1)C(=O)c1ccc(Cl)cc1 (stereo unspecified)	17.7	30.4	47.3	0.257	0.462	98.06 ± 0.7
CCOc1ccc(/C=C/c2nc(=O)c3ccccc3o2)cc1	13.3	41.5	69.3	0.0217	0.657	97.94 ± 0.17
Oc1ccc2ccccc2c1CNc1nc2ccccc2[nH]1	41.7	57.8	70.5	0.43	2.93	95.1 ± 1.9
CCCOCc1cc(CN2CCN(c3cccc(Cl)c3)CC2)c(O)c2ncccc12	6.74	41.8	52.5	1.5	3.79	99.61 ± 0.24
COc1cc(C(=O)Nc2ccc(-c3nc4ccccc4[nH]3)cc2)cc(OC)c1OC	< 0	9.26	43.1	4.73	0.788	91.42 ± 0.58
CCCCCCC(O)(c1ccc(F)cc1)C(CN1CCOCC1)c1ccccc1 (stereo unspecified)	37.5	40.1	40.3	3.57	2.16	100.1 ± 0.26
Oc1ccc(Br)cc1CN1CCN(Cc2ccc(Cl)cc2)CC1	16.2	45.5	68.8	6.61	1.09	91.5 ± 3.5
